Test results as given in ChEMBL document CHEMBL1201862, “PubChem BioAssay data set” (2004).
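Protocol summary: plate cells (96-well), add compound at 5 concentrations, incubate 48 h, interpolate endpoints linearly. Abbreviation: GI50, concentration required for 50% inhibition of growth.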 Calls of active or inactive are those of the source. Rule as the data show it: active = GI50 up to about 1.1 µM and inactive = higher.

What was measured:
Assay in all cases: inhibition of tumour cell growth, NCI panel, 48 h
786-0 = test system: 786-0
A498 = test system: A498
A549 = test system: A549
ACHN = test system: ACHN
CAKI-1 = test system: CAKI-1
CCRF-CEM = test system: CCRF-CEM
COLO 205 = test system: COLO 205
DLD-1 = test system: DLD-1
DMS-114 = test system: DMS-114
DMS-273 = test system: DMS-273
EKVX = test system: EKVX
HCC 2998 = test system: HCC 2998
HCT-116 = test system: HCT-116
HCT-15 = test system: HCT-15
HL-60 = test system: HL-60
HOP-18 = test system: HOP-18
HOP-62 = test system: HOP-62
HOP-92 = test system: HOP-92
HT-29 = test system: HT-29
IGROV-1 = test system: IGROV-1
K562 = test system: K562
KM-20L2 = test system: KM-20L2
KM12 = test system: KM12
LOX IMVI = test system: LOX IMVI
LXFL 529 = test system: LXFL 529
M14 = test system: M14
M19-MEL = test system: M19-MEL
MOLT-4 = test system: MOLT-4
Malme-3M = test system: Malme-3M
NCI-H226 = test system: NCI-H226
NCI-H23 = test system: NCI-H23
NCI-H460 = test system: NCI-H460
NCI-H522 = test system: NCI-H522
OVCAR-3 = test system: OVCAR-3
OVCAR-4 = test system: OVCAR-4
OVCAR-5 = test system: OVCAR-5
OVCAR-8 = test system: OVCAR-8
RPMI-8226 = test system: RPMI-8226
RXF 393 = test system: RXF 393
RXF 631 = test system: RXF 631
SF-268 = test system: SF-268
SF-295 = test system: SF-295
SK-MEL-28 = test system: SK-MEL-28
SK-MEL-2 = test system: SK-MEL-2
SK-MEL-5 = test system: SK-MEL-5
SK-OV-3 = test system: SK-OV-3
SN12C = test system: SN12C
SNB-19 = test system: SNB-19
SNB-75 = test system: SNB-75
SNB-78 = test system: SNB-78
SR = test system: SR
SW-620 = test system: SW-620
TK-10 = test system: TK-10
U-251 = test system: U-251
UACC-257 = test system: UACC-257
UACC-62 = test system: UACC-62
UO-31 = test system: UO-31

Question: CCCCCCCCCCCC(=O)OCCOCCOCCOCCOCCOCc1ccc(OC)cc1 was tested. Which GI50 (786-0) did it give?
Answer: Its GI50 is > 100 µM (inactive).

Question: What about the GI50 (A498) of the same molecule?
Answer: Its GI50 is > 100 µM (inactive).

Question: What about the GI50 (A549) of the same molecule?
Answer: Its GI50 is > 100 µM (inactive).

Question: What about the GI50 (ACHN) of the same molecule?
Answer: Its GI50 is > 100 µM (inactive).

Question: What about the GI50 (CAKI-1) of the same molecule?
Answer: The GI50 was > 100 µM (inactive).

Question: What about the GI50 (CCRF-CEM) of the same molecule?
Answer: Its GI50 is > 100 µM (inactive).

Question: And the GI50 (COLO 205)?
Answer: Its GI50 is > 100 µM (inactive).

Question: And the GI50 (DLD-1)?
Answer: The GI50 was > 100 µM (inactive).

Question: And the GI50 (DMS-114)?
Answer: Its GI50 is > 100 µM (inactive).

Question: And the GI50 (DMS-273)?
Answer: The GI50 was > 100 µM (inactive).

Question: And the GI50 (EKVX)?
Answer: Its GI50 is > 100 µM (inactive).

Question: What about the GI50 (HCC 2998) of the same molecule?
Answer: The GI50 was > 100 µM (inactive).

Question: What about the GI50 (HCT-116) of the same molecule?
Answer: The GI50 was > 100 µM (inactive).

Question: What about the GI50 (HCT-15) of the same molecule?
Answer: The GI50 was over 100 µM.

Question: And the GI50 (HL-60)?
Answer: The GI50 was 14.8 µM (inactive).

Question: And the GI50 (HOP-18)?
Answer: Its GI50 is > 100 µM (inactive).

Question: And the GI50 (HOP-62)?
Answer: The GI50 was > 100 µM (inactive).

Question: What about the GI50 (HOP-92) of the same molecule?
Answer: The GI50 was > 100 µM (inactive).

Question: What about the GI50 (HT-29) of the same molecule?
Answer: The GI50 was > 100 µM (inactive).

Question: What about the GI50 (IGROV-1) of the same molecule?
Answer: The GI50 was 88.5 µM (inactive).

Question: What about the GI50 (K562) of the same molecule?
Answer: Its GI50 is > 100 µM (inactive).

Question: What about the GI50 (KM-20L2) of the same molecule?
Answer: The GI50 was > 100 µM (inactive).

Question: What about the GI50 (KM12) of the same molecule?
Answer: Its GI50 is > 100 µM (inactive).

Question: What about the GI50 (LOX IMVI) of the same molecule?
Answer: The GI50 was > 100 µM (inactive).

Question: What about the GI50 (LXFL 529) of the same molecule?
Answer: The GI50 was > 100 µM (inactive).

Question: What about the GI50 (M14) of the same molecule?
Answer: Its GI50 is > 100 µM (inactive).

Question: And the GI50 (M19-MEL)?
Answer: The GI50 was > 100 µM (inactive).

Question: And the GI50 (MOLT-4)?
Answer: The GI50 was 73.6 µM (inactive).

Question: And the GI50 (Malme-3M)?
Answer: The GI50 was > 100 µM (inactive).

Question: And the GI50 (NCI-H226)?
Answer: Its GI50 is > 100 µM (inactive).

Question: And the GI50 (NCI-H23)?
Answer: The GI50 was > 100 µM (inactive).

Question: And the GI50 (NCI-H460)?
Answer: The GI50 was > 100 µM (inactive).

Question: And the GI50 (NCI-H522)?
Answer: The GI50 was > 100 µM (inactive).

Question: What about the GI50 (OVCAR-3) of the same molecule?
Answer: Its GI50 is > 100 µM (inactive).

Question: What about the GI50 (OVCAR-4) of the same molecule?
Answer: The GI50 was > 100 µM (inactive).

Question: And the GI50 (OVCAR-5)?
Answer: The GI50 was > 100 µM (inactive).

Question: What about the GI50 (OVCAR-8) of the same molecule?
Answer: The GI50 was > 100 µM (inactive).

Question: What about the GI50 (RPMI-8226) of the same molecule?
Answer: Its GI50 is > 100 µM (inactive).

Question: What about the GI50 (RXF 393) of the same molecule?
Answer: Its GI50 is > 100 µM (inactive).

Question: And the GI50 (RXF 631)?
Answer: Its GI50 is > 100 µM (inactive).

Question: What about the GI50 (SF-268) of the same molecule?
Answer: Its GI50 is > 100 µM (inactive).

Question: And the GI50 (SF-295)?
Answer: Its GI50 is > 100 µM (inactive).

Question: What about the GI50 (SK-MEL-28) of the same molecule?
Answer: The GI50 was > 100 µM (inactive).

Question: What about the GI50 (SK-MEL-2) of the same molecule?
Answer: Its GI50 is > 100 µM (inactive).

Question: What about the GI50 (SK-MEL-5) of the same molecule?
Answer: Its GI50 is > 100 µM (inactive).

Question: And the GI50 (SK-OV-3)?
Answer: The GI50 was > 100 µM (inactive).

Question: What about the GI50 (SN12C) of the same molecule?
Answer: Its GI50 is > 100 µM (inactive).

Question: And the GI50 (SNB-19)?
Answer: Its GI50 is > 100 µM (inactive).

Question: And the GI50 (SNB-75)?
Answer: The GI50 was > 100 µM (inactive).

Question: And the GI50 (SNB-78)?
Answer: The GI50 was > 100 µM (inactive).

Question: And the GI50 (SR)?
Answer: Its GI50 is > 100 µM (inactive).

Question: What about the GI50 (SW-620) of the same molecule?
Answer: Its GI50 is > 100 µM (inactive).

Question: What about the GI50 (TK-10) of the same molecule?
Answer: The GI50 was > 100 µM (inactive).

Question: What about the GI50 (U-251) of the same molecule?
Answer: Its GI50 is > 100 µM (inactive).

Question: And the GI50 (UACC-257)?
Answer: The GI50 was > 100 µM (inactive).

Question: What about the GI50 (UACC-62) of the same molecule?
Answer: The GI50 was > 100 µM (inactive).

Question: And the GI50 (UO-31)?
Answer: Its GI50 is > 100 µM (inactive).
